Source: PubChem BioAssay AID1918945 (Molecular Pharmacology Branch, DTP, NCI, 2023)

System: 883617-216-R-J1-PDC complex spheroid viability
Assay: Anticancer human tumor 883617-216-R-J1-PDC patient-derived bladder carcinoma cell line growth inhibition
Conditions: for IC50: curve of first compound; for viability, T/C: stronger effect = lower value
Excerpt: Multicellular complex tumor spheroid response to LSD1 Inhibitor Iadademstat in combination with a variety of drugs and investigational agents in selected tumor cell lines
The current study was undertaken to assess response to LSD1 inhibitors in combination with standard-of-care drugs and investigational agents in solid tumor complex spheroid models as well as in the K-562 leukemia. Complex spheroids include a stromal component modeled by human endothelial cells (HUVEC) and fibroblasts modeled by human mesenchymal stem cells (MSCs). The concentration ranges selected for each drug and investigational agent were based upon clinically achievable concentrations if the clinical Cmax of the agent was known.
Compounds. The drugs and investigational agents used in this study are listed on Table 1. All of the agents used, including staurosporine (NSC755774) and gemcitabine (NSC613327), were obtained from the Developmental Therapeutics Program, NCI. FDA-approved anticancer drugs are available from the NCI at http://dtp.nci.nih.gov/branches/dscb/oncology_drugset_explanation.html. Drugs and investigational agents were >95% pure by proton nuclear magnetic resonance (NMR) and liquid chromatography/mass spectrometry (LC/MS). Stock solutions were prepared at 400x in DMSO, stored at -70 degrees C, and diluted in fresh medium prior to their use. The final concentration of DMSO in cell culture wells never exceeded 0.25% (v/v). The FDA-approved anticancer drug set is available from the Developmental Therapeutics Program at https://dtp.cancer.gov/organization/dscb/obtaining/available_plates.htm. All drugs and investigational agents were tested over a range starting from a high concentration at or near the clinical Cmax and decreasing in half-log increments. If the clinical Cmax for an agent had not been determined, the highest concentration tested was 10 microM.
Cell Lines. The patient-derived cancer cell (PDC) lines: 292921-168-R-J2-PDC, K24384-001-R-PDC, and 521955-158-R2-J5-PDC pancreatic carcinomas, 556581-035-R-J1 ovarian carcinoma, 324938-238-R-J1-PDC, 855422-203-R-J1-PDC and 883617-216-R-J1-PDC urothelial bladder carcinomas, 743489-274-T-PDC renal cell carcinoma, 138582-R-J1 Merkel cell tumor, K60290-347-R-J1 and K57222-313-R-J1-PDC glioblastomas, 653999-131-R-J2-PDC, LG0703-F948-PDC, and 349418-098-R-PDC non-small cell lung carcinomas, 885512-296-R-J2-PDC, 171881-019-R-J1-PDC breast carcinomas and 186277-243-T-J2-PDC and 233499-124-R-J2-PDC colon carcinomas were obtained from the NCI Patient-Derived Models Repository (PDMR, https://pdmr.cancer.gov). The established cell lines NCI/ADR-RES (RRID:CVCL_14520 and OVCAR-5 (RRID:CVCL_1628) ovarian carcinomas, 786-O (RRID:CVCL_1051) and A498 (RRID:CVCL_A498) renal cell carcinoma, NCI-H211 (ATCC, cat. CRL-5824; RRID:CVCL_1529), NCI-H196 (ATCC, cat. CRL-5823, RRID:CVCL_1509), SW 1271 (ATCC, cat. CRL-2177, RRID:CVCL_1716) and NCI-H1876 (ATCC, cat. CRL-5902, RRID:CVCL_1503) small cell lung carcinomas, MDA-MB-231 (RRID:CVCL_0062) and MDA-MB-468 (RRID:CVCL_0419)breast carcinomas (10-12). Pooled donor human umbilical vein endothelial cells (HUVEC, Lonza, cat. CC-2519) and human mesenchymal stem cells (hMSC, Lonza, cat. PT-2501) were purchased from Lonza (Walkersville, MD).
Cell Culture. All cells were maintained in an incubator at 37 degrees C and 5% CO2 with 95% humidity. The PDC lines were cultured according to standard operating procedures established by the NCI PDMR (https://pdmr.cancer.gov). Briefly all PDCs were thawed and cultured in Matrigel-coated flasks prepared with a working solution of 1X Ham's F-12 nutrient mix, without supplementation (Invitrogen, Waltham, MA, cat. 11765054), 100 U/mL penicillin-streptomycin (Invitrogen, cat. 15140122), and 2.5% Matrigel (Corning Inc., Corning, NY, cat. 354248) for the first three passages. […]
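Note: exposure lasted seven days after three days of spheroid growth.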
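Throughout, for viability, T/C: 100% = DMSO vehicle control luminescence.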

Question: Which IC50 (second compound 0.1 µM) does the source give for `CCc1c2c(nc3ccc(O)cc13)-c1cc3c(c(=O)n1C2)COC(=O)[C@]3(O)CC` + NC1CC1c1ccc(-c2cccc(O)c2)cc1 here?
Answer: Its IC50 is < 0.949 nM.

Question: And the IC50 (second compound 0.316 µM)?
Answer: Its IC50 is < 0.949 nM.

Question: What about the IC50 (second compound 1 µM) of the same compound?
Answer: Its IC50 is < 0.949 nM.

Question: What about the IC50 (second compound 3.16 µM) of the same compound?
Answer: The IC50 was < 0.949 nM.

Question: And the IC50 (second compound 10 µM)?
Answer: The IC50 was < 0.949 nM.

Question: And the viability, T/C (second compound 0.1 µM, first compound 0.000949 µM)?
Answer: The viability, T/C was 25.1%.

Question: And the viability, T/C (second compound 0.1 µM, first compound 0.003 µM)?
Answer: Its viability, T/C is 20.4%.

Question: And the viability, T/C (second compound 0.1 µM, first compound 0.00949 µM)?
Answer: Its viability, T/C is 17.5%.

Question: What about the viability, T/C (second compound 0.1 µM, first compound 0.03 µM) of the same compound?
Answer: The viability, T/C was 14%.

Question: And the viability, T/C (second compound 0.1 µM, first compound 0.0949 µM)?
Answer: Its viability, T/C is 0.36%.

Question: What about the viability, T/C (second compound 0.1 µM, first compound 0.3 µM) of the same compound?
Answer: The viability, T/C was 0.15%.

Question: And the viability, T/C (second compound 0.316 µM, first compound 0.000949 µM)?
Answer: The viability, T/C was 25.6%.

Question: What about the viability, T/C (second compound 0.316 µM, first compound 0.003 µM) of the same compound?
Answer: Its viability, T/C is 21.7%.

Question: What about the viability, T/C (second compound 0.316 µM, first compound 0.00949 µM) of the same compound?
Answer: The viability, T/C was 19.9%.

Question: What about the viability, T/C (second compound 0.316 µM, first compound 0.03 µM) of the same compound?
Answer: Its viability, T/C is 13%.

Question: And the viability, T/C (second compound 0.316 µM, first compound 0.0949 µM)?
Answer: The viability, T/C was 0.27%.

Question: What about the viability, T/C (second compound 0.316 µM, first compound 0.3 µM) of the same compound?
Answer: Its viability, T/C is 0.12%.

Question: What about the viability, T/C (second compound 1 µM, first compound 0.000949 µM) of the same compound?
Answer: Its viability, T/C is 25.8%.

Question: What about the viability, T/C (second compound 1 µM, first compound 0.003 µM) of the same compound?
Answer: Its viability, T/C is 21.6%.

Question: What about the viability, T/C (second compound 1 µM, first compound 0.00949 µM) of the same compound?
Answer: Its viability, T/C is 24.4%.

Question: And the viability, T/C (second compound 1 µM, first compound 0.03 µM)?
Answer: Its viability, T/C is 14.2%.

Question: What about the viability, T/C (second compound 1 µM, first compound 0.0949 µM) of the same compound?
Answer: The viability, T/C was 0.38%.

Question: And the viability, T/C (second compound 1 µM, first compound 0.3 µM)?
Answer: Its viability, T/C is 0.88%.

Question: And the viability, T/C (second compound 3.16 µM, first compound 0.000949 µM)?
Answer: The viability, T/C was 21.6%.

Question: And the viability, T/C (second compound 3.16 µM, first compound 0.003 µM)?
Answer: The viability, T/C was 18.4%.

Question: And the viability, T/C (second compound 3.16 µM, first compound 0.00949 µM)?
Answer: Its viability, T/C is 19.6%.

Question: What about the viability, T/C (second compound 3.16 µM, first compound 0.03 µM) of the same compound?
Answer: The viability, T/C was 14.4%.

Question: What about the viability, T/C (second compound 3.16 µM, first compound 0.0949 µM) of the same compound?
Answer: Its viability, T/C is 0.18%.

Question: And the viability, T/C (second compound 3.16 µM, first compound 0.3 µM)?
Answer: The viability, T/C was 0.15%.

Question: What about the viability, T/C (second compound 10 µM, first compound 0.000949 µM) of the same compound?
Answer: Its viability, T/C is 22.1%.

Question: What about the viability, T/C (second compound 10 µM, first compound 0.003 µM) of the same compound?
Answer: Its viability, T/C is 19.7%.

Question: What about the viability, T/C (second compound 10 µM, first compound 0.00949 µM) of the same compound?
Answer: The viability, T/C was 17.4%.

Question: What about the viability, T/C (second compound 10 µM, first compound 0.03 µM) of the same compound?
Answer: Its viability, T/C is 13.8%.

Question: And the viability, T/C (second compound 10 µM, first compound 0.0949 µM)?
Answer: The viability, T/C was 0.25%.

Question: What about the viability, T/C (second compound 10 µM, first compound 0.3 µM) of the same compound?
Answer: Its viability, T/C is 0.21%.

Question: Which results are given for `CC1COCCN1c1cc(C2(S(C)(=N)=O)CC2)nc(-c2ccnc3[nH]ccc23)n1` (stereo not given) + NC1CCC(NC2CC2c2ccccc2)CC1?
Answer: IC50 (second compound 0.1 µM): 1050 nM; IC50 (second compound 0.316 µM): 1130 nM; IC50 (second compound 1 µM): 1080 nM; IC50 (second compound 3.16 µM): 1350 nM; IC50 (second compound 10 µM): 1520 nM; viability, T/C (second compound 0.1 µM, first compound 0.0316 µM): 106%; viability, T/C (second compound 0.1 µM, first compound 0.1 µM): 103%; viability, T/C (second compound 0.1 µM, first compound 0.316 µM): 78.9%; viability, T/C (second compound 0.1 µM, first compound 1 µM): 50.2%; viability, T/C (second compound 0.1 µM, first compound 3.16 µM): 43.9%; viability, T/C (second compound 0.1 µM, first compound 10 µM): 36.9%; viability, T/C (second compound 0.316 µM, first compound 0.0316 µM): 99.9%; viability, T/C (second compound 0.316 µM, first compound 0.1 µM): 101%; viability, T/C (second compound 0.316 µM, first compound 0.316 µM): 77.7%; viability, T/C (second compound 0.316 µM, first compound 1 µM): 51.8%; viability, T/C (second compound 0.316 µM, first compound 3.16 µM): 39.7%; viability, T/C (second compound 0.316 µM, first compound 10 µM): 33%; viability, T/C (second compound 1 µM, first compound 0.0316 µM): 101%; viability, T/C (second compound 1 µM, first compound 0.1 µM): 101%; viability, T/C (second compound 1 µM, first compound 0.316 µM): 70.8%; viability, T/C (second compound 1 µM, first compound 1 µM): 53.7%; viability, T/C (second compound 1 µM, first compound 3.16 µM): 39%; viability, T/C (second compound 1 µM, first compound 10 µM): 34.5%; viability, T/C (second compound 3.16 µM, first compound 0.0316 µM): 100%; viability, T/C (second compound 3.16 µM, first compound 0.1 µM): 93%; viability, T/C (second compound 3.16 µM, first compound 0.316 µM): 75.4%; viability, T/C (second compound 3.16 µM, first compound 1 µM): 52.9%; viability, T/C (second compound 3.16 µM, first compound 3.16 µM): 40.6%; viability, T/C (second compound 3.16 µM, first compound 10 µM): 31.5%; viability, T/C (second compound 10 µM, first compound 0.0316 µM): 106%; viability, T/C (second compound 10 µM, first compound 0.1 µM): 92.7%; viability, T/C (second compound 10 µM, first compound 0.316 µM): 78.8%; viability, T/C (second compound 10 µM, first compound 1 µM): 52%; viability, T/C (second compound 10 µM, first compound 3.16 µM): 43.8%; viability, T/C (second compound 10 µM, first compound 10 µM): 34.9%
